Here are results for four compounds from patent US20250177334A1, “Pharmaceutical Compositions Comprising Phenylsulfonamides, and Their Therapeutic Applications” (Cura Therapeutics, LLC, priority 2018, published 2025).

Several values for one entry are separate records, joined by “and”; a condition that tells them apart may be missing. Equal entries are not always repeated. Where two headings read alike, the source gives them in different places.

A short description of series [1]: Metabolic stability in fresh human plasma (LC/MS/MS peak heights). Type of series: in vitro ADME. The note with it: for % Remaining: plasma; for Peak Height: duplicate aliquots. Here is the method:
Compounds A1-A3 were independently spiked directly into an individual lot of fresh human plasma, with sodium heparin as the anticoagulant, such that the final assay concentration of each compound was 1.00 μM. After incubation at room temperature for 0, 0.5, 1, 2, and 4 hours, samples were removed and aliquoted for analysis. Valacyclovir was used as a positive control. The plasma samples containing a test compound were processed by protein precipitation.
A primary 1.00 mM stock solution of a test compound was prepared in either acetonitrile or acetonitrile:water (1:1, v/v). A 0.200 mM working stock was made from the primary stock in acetonitrile water (1:1, v/v), which was used in the human plasma stabiltity study. The primary and working stock solutions were stored at −20° C. when not in use. When it was used in the assay, the working stock was kept at room temperature for as short a time as possible.
The human plasma stabiltity study was initiated by adding 5.00 μL of a test compound stock solution to 0.995 mL of human plasma (sodium heparin) in a 1.7-mL snap tube. Time zero points were generated by immediately removing duplicate 50.0 μL aliquots of plasma after initiating each incubation and quenching in 150 μL of methanol. The plasma incubation tubes were capped and remained at room temperature between time points.
After 0.5, 1, 2, and 4 hours of incubation, duplicate 50.0 μL aliquots of plasma were removed and placed into the extraction tubes containing 150 μL of methanol. Each time point was immediately extracted by vortex mixing, centrifuged, and the supernate removed to HPLC vial for analysis. After extraction of all samples, the extracts were analyzed by LC/MS/MS.
LC/MS/MS analysis of the incubation solutions was conducted by initial separation of a test compound peak using chromatography prior to detection by a mass spectrometer. The LC/MS system was comprised of a HPLC coupled with a TQS-Micro or Quattro Premier. The mobile phase was nebulized using heated nitrogen in a Z-spray source/interface set to electrospray in either positive ionization mode or negative ionization mode. The ionized compounds were detected using MS/MS. The data was acquired using MassLynx.
The peak heights for compounds A1-A3 are presented in Table 1, whereas the peak heights for the positive control are shown in Table 2.

The nature of series [2]: Compound A2 concentration in the CSF of rats. In kind it is in vivo. Here is the method:
Compound A2 in the CSF of the rats was also analyzed. The results are shown in Table 4 below, wherein BQL stands for below the quantifiable limit of 2.0 ng/mL.

A short description of series [3]: Pharmacokinetic study of compound A2 in rats. Type of series: in vivo. Here is the method:
A pharmacokinetic study on compound A2 was carried out in rats.

[4] abbreviates: fresh human plasma, 1.00 μM, room temperature, 0 h.
Setting [5] is: fresh human plasma, 1.00 μM, room temperature, 0.5 h.
[6] abbreviates: fresh human plasma, 1.00 μM, room temperature, 4 h.

As for `CS(=O)(=O)Nc1cccc(NS(=O)(=O)c2ccc(C(=O)O)cc2)c1` [Compound A1, 4-(N-(3-(methylsulfonamido)phenyl)sulfamoyl)benzoic acid], the “Mean Height” value was 4,250 in series [1] (human, 0 h, 1 μM); 3,740 in series [1] (human, 0.5 h, 1 μM); 3,680 in series [1] (human, 1 h, 1 μM); 3,510 in series [1] (human, 2 h, 1 μM); 3,670 in series [1] (human, 4 h, 1 μM). For the same compound, the “% Remaining” value in series [1] (human, 0 h, 1 μM) is 100%; in series [1] (human, 0.5 h, 1 μM) it was 88%; in series [1] (human, 1 h, 1 μM), 87%; in series [1] (human, 2 h, 1 μM), 83%; in series [1] (human, 4 h, 1 μM) it was 86%.

As for `Cc1ccc(C(F)(F)F)cc1NS(=O)(=O)c1cccc(C(=O)O)c1` [Compound A2, 3-(N-(2-methyl-5-(trifluoromethyl)phenyl)sulfamoyl)benzoic acid], the “Mean Height” value in series [1] (human, 0 h, 1 μM) is given as 12,600; in series [1] (human, 0.5 h, 1 μM), 13,300; in series [1] (human, 1 h, 1 μM) it was 13,000; in series [1] (human, 2 h, 1 μM), 13,000; in series [1] (human, 4 h, 1 μM) it was 13,100. Besides, the “% Remaining” value in series [1] (human, 0 h, 1 μM) is on record as 100%; in series [1] (human, 0.5 h, 1 μM), 106%; in series [1] (human, 1 h, 1 μM), 103%; in series [1] (human, 2 h, 1 μM), 103%; in series [1] (human, 4 h, 1 μM), 104%. Besides, the “CSF Concentration” value in series [2] (IV, 0.00 h, individual animals) was “BQL (BQL stands for below the quantifiable limit of 2.0 ng/mL)”; in series [2] (IV, 0.5 h, individual animals), 65 ng/mL and 0.95 ng/mL and BQL (BQL stands for below the quantifiable limit of 2.0 ng/mL); in series [2] (IV, 1.0 h, individual animals), 4.2 ng/mL and 17 ng/mL; in series [2] (IV, 2.0 h, individual animals) it was “BQL (BQL stands for below the quantifiable limit of 2.0 ng/mL)”; in series [2] (IV, 8.0 h, individual animals), “BQL (BQL stands for below the quantifiable limit of 2.0 ng/mL)”; in series [2] (IV, 12 h, individual animals), “BQL (BQL stands for below the quantifiable limit of 2.0 ng/mL)”. In addition, the “CSF Concentration” value in series [2] (IV, 24 h, individual animals) was “BQL (BQL stands for below the quantifiable limit of 2.0 ng/mL)”; in series [2] (PO, 0.00 h, individual animals), “BQL (BQL stands for below the quantifiable limit of 2.0 ng/mL)”; in series [2] (PO, 0.5 h, individual animals), 4.3 ng/mL and BQL (BQL stands for below the quantifiable limit of 2.0 ng/mL); in series [2] (PO, 1.0 h, individual animals), 5.3 ng/mL and 32 ng/mL and 6.7 ng/mL; in series [2] (PO, 2.0 h, individual animals) it was 2.8 ng/mL and 3.1 ng/mL; in series [2] (PO, 4.0 h, individual animals) it was 139 ng/mL and 56 ng/mL. The “CSF Concentration” value was “BQL (BQL stands for below the quantifiable limit of 2.0 ng/mL) and 1.6 ng/mL and 20 ng/mL” in series [2] (PO, 8.0 h, individual animals); 1.5 ng/mL and 11 ng/mL in series [2] (PO, 12 h, individual animals); “BQL (BQL stands for below the quantifiable limit of 2.0 ng/mL)” in series [2] (PO, 24 h, individual animals). Moreover, the concentration at 1 h in series [2] (rat, CSF, iv, 1 mg/kg, 1.0 h, mean) is 11 ng/mL; in series [2] (rat, CSF, po, 10 mg/kg, 1.0 h, mean) it was 15 ng/mL. The concentration at 0.5 h in series [2] (rat, CSF, iv, 1 mg/kg, IV, 0.5 h, mean, read-out: CSF Concentration, Mean) was determined as 33 ng/mL; in series [2] (rat, CSF, po, 10 mg/kg, PO, 0.5 h, individual animals, read-out: CSF Concentration) it was 2.7 ng/mL; in series [2] (rat, CSF, po, 10 mg/kg, PO, 0.5 h, mean, read-out: CSF Concentration, Mean), 3.5 ng/mL. The concentration at 2 h was determined as 4.9 ng/mL in series [2] (rat, CSF, iv, 1 mg/kg, IV, 2.0 h, individual animals, read-out: CSF Concentration); 4.9 ng/mL in series [2] (rat, CSF, iv, 1 mg/kg, IV, 2.0 h, mean, read-out: CSF Concentration, Mean); 3.6 ng/mL in series [2] (rat, CSF, po, 10 mg/kg, PO, 2.0 h, individual animals, read-out: CSF Concentration); 3.2 ng/mL in series [2] (rat, CSF, po, 10 mg/kg, PO, 2.0 h, mean, read-out: CSF Concentration, Mean). The concentration at 4 h in series [2] (rat, CSF, iv, 1 mg/kg, IV, 4.0 h, individual animals, read-out: CSF Concentration) is 15 ng/mL; in series [2] (rat, CSF, iv, 1 mg/kg, IV, 4.0 h, mean, read-out: CSF Concentration, Mean), 15 ng/mL; in series [2] (rat, CSF, po, 10 mg/kg, PO, 4.0 h, mean, read-out: CSF Concentration, Mean) it was 97.4 ng/mL. For the same compound, the concentration at 8 h came out at 1.4 ng/mL in series [2] (rat, CSF, iv, 1 mg/kg, IV, 8.0 h, individual animals, read-out: CSF Concentration); 1.4 ng/mL in series [2] (rat, CSF, iv, 1 mg/kg, IV, 8.0 h, mean, read-out: CSF Concentration, Mean); 11 ng/mL in series [2] (rat, CSF, po, 10 mg/kg, PO, 8.0 h, mean, read-out: CSF Concentration, Mean). For the same compound, the concentration at 12 h in series [2] (rat, CSF, po, 10 mg/kg, 12 h, mean) amounted to 6.5 ng/mL. Besides, the concentration at 24 h in series [2] (rat, CSF, po, 10 mg/kg, PO, 24 h, individual animals, read-out: CSF Concentration) is 2 ng/mL; in series [2] (rat, CSF, po, 10 mg/kg, PO, 24 h, mean, read-out: CSF Concentration, Mean), 2 ng/mL. The AUCINF/Dose in series [3] (IV) is 13800; in series [3] (PO), 6420. The “CL or CL/F” value in series [3] (IV) was 1.2 mL/min/kg. Besides, the HL in series [3] (IV) is on record as 5 h; in series [3] (PO), 7 h. Further, the AUC(0-inf) (commonly total exposure, with the tail of the curve extrapolated) in series [3] (rat, in vivo, 1 mg/kg, IV) came out at 13800 ng·h/mL; in series [3] (rat, in vivo, 10 mg/kg, PO), 64200 ng·h/mL. For the same compound, the AUC(0-t) (in general, exposure summed from dosing to a finite time, without extrapolation to infinity) in series [3] (rat, in vivo, 1 mg/kg, IV) was 13400 ng·h/mL; in series [3] (rat, in vivo, 10 mg/kg, PO), 56200 ng·h/mL. Further, the Cmax – broadly, the maximum level reached in the sampled fluid or tissue – was found to be 4310 ng/mL in series [3] (rat, in vivo, 1 mg/kg, IV) and 4590 ng/mL in series [3] (rat, in vivo, 10 mg/kg, PO). Moreover, the time of peak concentration (Tmax) (in general, the time from dosing to the highest level) in series [3] (rat, in vivo, 10 mg/kg, PO) amounted to 4 h. The bioavailability (usually the share of a dose that reaches the circulation, judged against a reference dose that is usually intravenous) in series [3] (rat, in vivo, 10 mg/kg, PO) is 45%. Further, the CL/F in series [3] (rat, in vivo, 10 mg/kg, PO, read-out: CL or CL/F) was 2.6 mL/min/kg.

In the case of `COc1cc(NS(=O)(=O)c2cccc(C(=O)O)c2)cc(OC)c1` [Compound A3, 3-(N-(3,5-dimethoxyphenyl)sulfamoyl)benzoic acid], the “Mean Height” value is on record as 4,210 in series [1] (human, 0 h, 1 μM); 4,100 in series [1] (human, 0.5 h, 1 μM); 3,660 in series [1] (human, 1 h, 1 μM); 3,440 in series [1] (human, 2 h, 1 μM); 3,850 in series [1] (human, 4 h, 1 μM). For the same compound, the “% Remaining” value in series [1] (human, 0 h, 1 μM) turned out to be 100%; in series [1] (human, 0.5 h, 1 μM) it was 97%; in series [1] (human, 1 h, 1 μM), 87%; in series [1] (human, 2 h, 1 μM), 82%; in series [1] (human, 4 h, 1 μM), 91%.

For `CC(C)[C@H](N)C(=O)OCCOCn1cnc2c(=O)[nH]c(N)nc21` [Valacyclovir, reference compound], the “Mean Height” value was 21,400 in series [1] (setting [4]); 20,700 in series [1] (setting [5]); 20,500 in series [1] (fresh human plasma, 1.00 μM, room temperature, 1 h); 17,700 in series [1] (setting [6]); 19,800 in series [1] (human, 2 h, 1 μM). Besides, the “Peak Height” value in series [1] (setting [4]) is 21,201 and 21,603; in series [1] (setting [5]), 21,055 and 20,329; in series [1] (fresh human plasma, 1.00 μM, room temperature, 2 h) it was 19,941 and 19,624; in series [1] (setting [6]) it was 17,697 and 17,785. The “% Remaining” value is given as 100% in series [1] (human, 0 h, 1 μM); 96.7% in series [1] (human, 0.5 h, 1 μM); 95.8% in series [1] (human, 1 h, 1 μM); 92.5% in series [1] (human, 2 h, 1 μM); 82.7% in series [1] (human, 4 h, 1 μM).
